Measurements published in patent US11040981B2, “Pyrrolotriazine compounds and methods of inhibiting TAM kinases” (Syros Pharmaceuticals, Inc., priority 2017, dated 2021).
pIC50: −log10 of the molar value.

How the values were obtained:
FLT3 = biological target: T1, FLT3 (Homo sapiens, UniProt P36888); test: TR-FRET kinase activity assay, FLT3; assay type: biochemical; details: ATP at Km, 60 minutes
T1 sequence (P36888 27-993): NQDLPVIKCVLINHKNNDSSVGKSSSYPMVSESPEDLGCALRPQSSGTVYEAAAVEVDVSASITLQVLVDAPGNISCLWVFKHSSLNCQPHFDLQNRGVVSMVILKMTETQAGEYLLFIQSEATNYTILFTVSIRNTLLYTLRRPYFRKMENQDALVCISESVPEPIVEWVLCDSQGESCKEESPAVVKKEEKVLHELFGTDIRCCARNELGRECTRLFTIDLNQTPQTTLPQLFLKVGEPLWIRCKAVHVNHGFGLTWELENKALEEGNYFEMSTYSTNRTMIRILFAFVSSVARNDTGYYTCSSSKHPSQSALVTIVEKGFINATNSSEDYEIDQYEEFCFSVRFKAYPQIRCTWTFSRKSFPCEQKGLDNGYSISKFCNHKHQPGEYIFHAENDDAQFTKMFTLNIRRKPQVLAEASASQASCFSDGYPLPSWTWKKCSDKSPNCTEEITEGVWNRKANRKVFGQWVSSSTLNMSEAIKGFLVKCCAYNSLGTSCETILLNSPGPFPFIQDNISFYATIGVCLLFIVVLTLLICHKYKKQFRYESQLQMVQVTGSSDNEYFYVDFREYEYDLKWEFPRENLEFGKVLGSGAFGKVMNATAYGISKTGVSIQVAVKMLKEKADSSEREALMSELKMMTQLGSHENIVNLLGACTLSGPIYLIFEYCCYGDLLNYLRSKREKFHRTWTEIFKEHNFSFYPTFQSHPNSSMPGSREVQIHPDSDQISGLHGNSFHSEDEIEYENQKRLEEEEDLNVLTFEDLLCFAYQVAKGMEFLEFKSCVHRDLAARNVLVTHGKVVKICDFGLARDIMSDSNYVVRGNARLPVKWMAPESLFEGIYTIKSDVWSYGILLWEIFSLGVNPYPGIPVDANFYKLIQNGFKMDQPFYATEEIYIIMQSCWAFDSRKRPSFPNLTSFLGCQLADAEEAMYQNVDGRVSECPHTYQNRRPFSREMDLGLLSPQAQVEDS
In short: (§1)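 Inhibition is measured as loss of phospho-peptide formation: kinase, fluorescent tyrosine peptide and compound are combined, ATP is added at Km, and the reaction proceeds 60 min at RT in pH 7.5 HEPES buffer. An EDTA stop and Eu-labelled phospho-specific antibody allow TR-FRET detection for IC50 fitting.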

TYRO3 = biological target: T2, TYRO3 (Homo sapiens, UniProt Q06418); test: TR-FRET kinase activity assay, TYRO3; assay type: biochemical; details: ATP at Km, 60 minutes
T2 sequence (Q06418 41-890): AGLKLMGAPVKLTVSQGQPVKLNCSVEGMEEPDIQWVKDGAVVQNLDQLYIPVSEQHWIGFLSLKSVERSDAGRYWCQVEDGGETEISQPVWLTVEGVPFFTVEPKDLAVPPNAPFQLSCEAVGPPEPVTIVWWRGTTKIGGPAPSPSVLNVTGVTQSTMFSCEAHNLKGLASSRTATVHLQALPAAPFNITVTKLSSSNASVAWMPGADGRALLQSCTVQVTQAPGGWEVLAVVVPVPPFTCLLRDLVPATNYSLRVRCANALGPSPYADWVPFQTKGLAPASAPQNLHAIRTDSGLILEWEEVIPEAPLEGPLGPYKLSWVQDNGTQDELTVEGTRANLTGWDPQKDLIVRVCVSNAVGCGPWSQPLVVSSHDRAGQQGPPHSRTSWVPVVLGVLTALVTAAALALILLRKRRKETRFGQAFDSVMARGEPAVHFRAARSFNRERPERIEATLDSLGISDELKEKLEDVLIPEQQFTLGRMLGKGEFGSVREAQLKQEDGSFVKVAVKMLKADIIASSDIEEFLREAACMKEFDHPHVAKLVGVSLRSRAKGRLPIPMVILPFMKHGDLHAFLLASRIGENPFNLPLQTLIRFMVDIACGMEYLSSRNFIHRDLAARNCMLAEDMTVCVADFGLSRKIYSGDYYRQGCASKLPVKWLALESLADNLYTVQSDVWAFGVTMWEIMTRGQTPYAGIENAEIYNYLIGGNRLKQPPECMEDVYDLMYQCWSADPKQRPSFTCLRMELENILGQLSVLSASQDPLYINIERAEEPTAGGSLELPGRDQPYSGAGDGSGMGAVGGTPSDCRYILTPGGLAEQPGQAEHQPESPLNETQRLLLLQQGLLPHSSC
In short: as §1

Row | Compound | pIC50 (FLT3) | pIC50 (TYRO3)
1 | CNS(=O)(=O)c1ccc(-c2cc([C@H]3CC[C@H](O)CC3)n3nc(N[C@@H](C)COC)ncc23)cn1 [Compound 336] | 6.00 to 7.00 | ≥ 7.00
2 | COC[C@H](C)Nc1ncc2c(-c3ccnc(NC(C)C)c3)cc([C@H]3CC[C@H](O)CC3)n2n1 [Compound 337] | 6.00 to 7.00 | ≥ 7.00
3 | COC[C@H](C)Nc1ncc2c(-c3ccnc(N4CCN(S(C)(=O)=O)CC4)c3)cc([C@H]3CC[C@H](O)CC3)n2n1 [Compound 338] | 6.00 to 7.00 | ≥ 7.00
4 | COC[C@H](C)Nc1ncc2c(-c3ccnc(N4CCCC4)c3)cc([C@H]3CC[C@H](O)CC3)n2n1 [Compound 339] | 6.00 to 7.00 | ≥ 7.00
5 | COC[C@H](C)Nc1ncc2c(-c3ccnc(N4CCNC(=O)C4)c3)cc([C@H]3CC[C@H](O)CC3)n2n1 [Compound 340] | 6.00 to 7.00 | ≥ 7.00

Results, then the molecule that gave them:

Row | pIC50 (FLT3) | pIC50 (TYRO3) | Compound
6 | 6.00 to 7.00 | ≥ 7.00 | COC[C@H](C)Nc1ncc2c(-c3ccnc(OC4CCCN(C)C4)c3)cc([C@H]3CC[C@H](O)CC3)n2n1 (some centres unmarked) [Compound 341]
7 | 6.00 to 7.00 | ≥ 7.00 | COC[C@H](C)Nc1ncc2c(-c3ccnc(OC4CCN(C)CC4)c3)cc([C@H]3CC[C@H](O)CC3)n2n1 [Compound 342]
8 | 5.00 to 6.00 | ≥ 7.00 | COC[C@H](C)Nc1ncc2c(-c3ccnc(OC(C)C)c3)cc([C@H]3CC[C@H](O)CC3)n2n1 [Compound 343]
9 | 6.00 to 7.00 | ≥ 7.00 | COC[C@H](C)Nc1ncc2c(-c3ccnc(N4CCN(C(C)=O)CC4)c3)cc([C@H]3CC[C@H](O)CC3)n2n1 [Compound 344]
10 | 5.00 to 6.00 | ≥ 7.00 | COCCOc1cc(-c2cc([C@H]3CC[C@H](O)CC3)n3nc(N[C@@H](C)COC)ncc23)ccn1 [Compound 345]
